# In patent US8258097B2, “Amino acid derivatives” (Proximagen Ltd., priority 2007, dated 2012):
# Tested on: 6-OHDA-lesioned rats
# Experiment: Assessment of rotational (locomotor) activity in 6-OHDA-lesioned rats
# Type: in vivo, Male Wistar rats
# Conditions: p.o., with benserazide 10 mg/kg, 63.4 μmole/kg
# Description: • Animals Male Wistar rats, 200-225 g on arrival, Harlan Ltd. • Housing Animals were housed in groups of 4 on a 12-h light-dark cycle with an environment of 50% humidity and temperature of 21±2° C. in accordance with Animals (Scientific Procedures) Act […] Home Office regulations. Rats had access to food and water ad libitum. • Licence All animals used in this study were treated in accordance with the UK 1986 Animals (Scientific Procedures Act). Procedure • Surgery Male Wistar rats were anaesthetized in an induction chamber using isofluorane (1-2% in 95% O2, 5% CO2 carrier gas), placed in a Kopf stereotaxic frame and anaesthesia maintained with 0.5-1.0% isofluorane. An incision was made in the scalp and a 0.8-mm-diameter hole made in the skull at coordinates AP: −2.6 mm, L: +2.0 mm (all co-ordinated measured from bregma). The neurotoxin 6-hydroxydopamine (6-OHDA) (8 μg free base in 4 μL of 0.9% saline containing 0.05% ascorbic acid) was injected into the left median forebrain bundle at a constant rate over 4 min (1 μl/min) using a 10-μL Hamilton syringe lowered to −8 mm below the dura. The needle remained in place for a further 4 min before being removed, and the wound cleaned and sutured. Carprofen (5 mg/kg subcutaneously) was administered for pain relief and a rehydration treatment of 5% glucose in 0.9% saline (up to 5 ml ip) was given prior to recovery from the anaesthetic. Behavioural Assessment Confirmation of the Lesion • At least 2 weeks following surgery, animals were examined for rotational behaviour (see below) in response to the administration of apomorphine hydrochloride (0.5 mg/kg s.c. in 0.9% saline containing 0.05% ascorbic acid) to evaluate the extent of the lesion. […]. Animals were placed in rotometers (Med Associates) for up to 30 min to measure basal activity. They were then treated with benserazide (10 mg/kg) concomitantly with test compound or L-DOPA (63.4 μmole/kg ip or po). Rotation behaviour was assessed for up to 6 hours after test drug/L-DOPA administration. Animals were typically treated with a series of compounds for comparative purposes. Each treatment was administered at least 1 day apart. Data Analysis • The number of rotations measured per 10 minutes over the 6 hour period was determined. Animals were considered active if they turned >10 turns per 10 minutes.
smiles,measurement,setting,value
"CNC(=O)Oc1cc(C[C@H](NC(=O)[C@@H](N)Cc2ccc(O)c(O)c2)C(=O)OC)ccc1O.Cl [Example 8, (S)-2-(3,4-Dihydroxy-phenyl)-1-[(S)-2-(4-hydroxy-3-methylcarbamoyloxy-phenyl)-1-methoxycarbonyl-ethylcarbamoyl]-ethyl-ammonium chloride]",AUC (locomotor activity),,928 (±161) rotations per 220 min
same,locomotor activity compared to baseline,,increased locomotor activity compared to baseline
same,peak locomotor activity,,92 (±20) rotations per 10 min
same,duration of locomotor activity,active = >10 turns per 10 minutes,142 (±7) min
